Assay results published in US9133158B2, “Bicyclic dihydroisoquinoline-1-one derivatives” (Hoffmann-La Roche Inc., priority 2011, dated 2015).

Experiments:
[1] = target: T1, human CYP11B1 (Homo sapiens, UniProt P15538); assay: G-402 cellular enzyme assay, human CYP11B1 (cortisol release, HTRF); assay type: cell-based; conditions: G-402 cells, 1 μM Deoxycortisol
T1 construct: expressed in transfected cells
T1 sequence (P15538 25-503): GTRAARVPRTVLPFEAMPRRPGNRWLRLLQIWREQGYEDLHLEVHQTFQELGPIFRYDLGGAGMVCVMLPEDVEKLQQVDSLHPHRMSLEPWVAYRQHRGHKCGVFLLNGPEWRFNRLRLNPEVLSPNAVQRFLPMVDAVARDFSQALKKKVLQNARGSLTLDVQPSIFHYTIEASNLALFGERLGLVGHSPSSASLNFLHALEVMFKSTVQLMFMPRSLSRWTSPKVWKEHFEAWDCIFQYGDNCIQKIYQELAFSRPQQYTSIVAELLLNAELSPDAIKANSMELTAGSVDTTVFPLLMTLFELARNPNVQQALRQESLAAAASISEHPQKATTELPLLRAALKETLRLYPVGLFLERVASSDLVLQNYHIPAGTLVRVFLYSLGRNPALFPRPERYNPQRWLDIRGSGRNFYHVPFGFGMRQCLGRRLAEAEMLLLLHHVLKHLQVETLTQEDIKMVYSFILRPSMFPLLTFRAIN
Source text: (§1) Herein we identified the use of the G-402 cell line as a host cell to ectopically express (transiently or stably) enzymes of the CYP11 family. Specifically we developed stable G-402 cells expressing ectopically human CYP11B1, human CYP11B2, human CYP11A1, cynmolgus CYP11B1 or cynomolgus CYP11B2 enzyme activity. Importantly the identified cell line G-402 expresses co-factors (adrenodoxin and adrenodoxin reductase) important for the activity of the CYP11 family and no relevant enzyme activity of the CYP11 family (in comparison to H295R cells) was detected in these cells. Therefore the G-402 cell line is uniquely suited as a host cell for the ectopic expression of enzymes from the CYP11 family.
(§2) G-402 cells can be obtained from ATCC(CRL-1440) and were originally derived from a renal leiomyoblastoma.
(§3) The expression plasmids contain the ORF for either human/cyno CYP11B1 or CYP11B2 under the control of a suitable promoter (CMV-promoter) and a suitable resistance marker (neomycin). Using standard techniques the expression plasmid is transfected into G-402 cells and these cells are then selected for expressing the given resistance markers. Individual cell-clones are then selected and assessed for displaying the desired enzymatic activity using 11-Deoxycorticosterone (Cyp11B2) or 11-Deoxycortisol (Cyp11B1) as a substrate.
(§4) G-402 cells expressing CYP11 constructs were established as described above and maintained in McCoy's 5a Medium Modified, ATCC Catalog No. 30-2007 containing 10% FCS and 400 μg/ml G418 (Geneticin) at 37° C. under an atmosphere of 5% CO2/95% air.
(§5) Cellular enzyme assays were performed in DMEM/F12 medium containing 2.5% charcoal treated FCS and appropriate concentration of substrate (0.3-10 uM 11-Deoxycorticosterone, 11-Deoxycortisol or Corticosterone). For assaying enzymatic activity, cells were plated onto 96 well plates and incubated for 16 h. An aliquot of the supernatant is then transferred and analyzed for the concentration of the expected product (Aldosterone for CYP11B2; Cortisol for CYP11B1). The concentrations of these steroids can be determined using HTRF assays from CisBio analyzing either Aldosterone or Cortisol.
(§6) Inhibition of the release of produced steroids can be used as a measure of the respective enzyme inhibition by test compounds added during the cellular enzyme assay. The dose dependent inhibition of enzymatic activity by a compound is calculated by means of plotting added inhibitor concentrations (x-axes) vs. measured steroid/product level (y-axes). The inhibition is then calculated by fitting the following 4-parameter sigmoidal function (Morgan-Mercer-Flodin (MMF) model) to the raw data points using the least squares method:
(§7) [formula] wherein, A is the maximum y value, B is the EC50 factor determined using XLFit, C is the minimum y value and D is the slope value.
(§8) EC50 values for compounds claimed herein were tested with the G402-based assay system described. Cyp11B2 enzyme activity was tested in presence of 1 μM Deoxycorticosterone and variable amounts of inhibitors; Cyp11B1 enzyme activity was tested in presence of 1 μM Deoxycortisol and variable amounts of inhibitors.

[2] = target: T2, human CYP11B2 (Homo sapiens, UniProt P19099); assay: G-402 cellular enzyme assay, human CYP11B2 (aldosterone release, HTRF); assay type: cell-based; conditions: G-402 cells, 1 μM Deoxycorticosterone
T2 construct: expressed in transfected cells
T2 sequence (P19099 25-503): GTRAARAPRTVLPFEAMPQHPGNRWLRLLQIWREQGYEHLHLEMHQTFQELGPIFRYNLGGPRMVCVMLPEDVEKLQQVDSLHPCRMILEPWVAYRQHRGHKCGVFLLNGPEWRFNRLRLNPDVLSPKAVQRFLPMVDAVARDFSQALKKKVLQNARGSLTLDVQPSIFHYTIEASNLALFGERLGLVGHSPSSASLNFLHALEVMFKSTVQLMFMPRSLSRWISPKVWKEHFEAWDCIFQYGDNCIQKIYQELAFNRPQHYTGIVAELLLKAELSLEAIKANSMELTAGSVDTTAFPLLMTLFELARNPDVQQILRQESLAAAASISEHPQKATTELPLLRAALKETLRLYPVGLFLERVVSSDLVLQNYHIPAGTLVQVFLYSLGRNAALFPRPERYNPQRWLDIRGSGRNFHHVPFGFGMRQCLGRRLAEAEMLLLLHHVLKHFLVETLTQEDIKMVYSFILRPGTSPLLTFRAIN
Source text: as §1, §2, §3, §4, §5, §6, §7, §8

Compound	EC50 [1]	EC50 [2]
CC(=O)NC1CCCc2c1cncc2N1Cc2cc(Cl)ccc2C1=O (single isomer, unassigned) [Example 323, N-[(R or S)-4-(5-Chloro-1-oxo-1,3-dihydro-isoindol-2-yl)-5,6,7,8-tetrahydro-isoquinolin-8-yl]-acetamide]	2350 nM	44.2 nM
CS(=O)(=O)NC1CCCc2c1cncc2N1CCc2cc(Cl)ccc2C1=O (single isomer, unassigned) [Example 325, N-((R or S)-6-Chloro-1-oxo-3,4,5′,6′,7′,8′-hexahydro-1H-[2,4′]biisoquinolinyl-8′-yl)-methanesulfonamide]	4490 nM	59.2 nM
CS(=O)(=O)NC1CCCc2c1cncc2N1Cc2cc(Cl)ccc2C1=O (single isomer, unassigned) [Example 326, N-[(S or R)-4-(5-Chloro-1-oxo-1,3-dihydro-isoindol-2-yl)-5,6,7,8-tetrahydro-isoquinolin-8-yl]-methanesulfonamide]	6610 nM	1870 nM
CS(=O)(=O)NC1CCCc2c1cncc2N1Cc2cc(Cl)ccc2C1=O (single isomer, unassigned) [Example 327, N-[(R or S)-4-(5-Chloro-1-oxo-1,3-dihydro-isoindol-2-yl)-5,6,7,8-tetrahydro-isoquinolin-8-yl]-methanesulfonamide]	10700 nM	1360 nM
CCC(=O)NC1CCCc2c1cncc2N1CCc2cc(Cl)ccc2C1=O (single isomer, unassigned) [Example 328, N-((R or S)-6-Chloro-1-oxo-3,4,5′,6′,7′,8′-hexahydro-1H-[2,4′]biisoquinolinyl-8′-yl)-propionamide]	18400 nM	173 nM
CCC(=O)NC1CCCc2c1cncc2N1CCc2cc(Cl)ccc2C1=O (single isomer, unassigned) [Example 329, N-((S or R)-6-Chloro-1-oxo-3,4,5′,6′,7′,8′-hexahydro-1H-[2,4′]biisoquinolinyl-8′-yl)-propionamide]	12000 nM	6020 nM
CS(=O)(=O)NC1CCc2c1cncc2N1CCc2cc(Cl)ccc2C1=O (single isomer, unassigned) [Example 331, N-[(R or S)-4-(6-Chloro-1-oxo-3,4-dihydro-1H-isoquinolin-2-yl)-6,7-dihydro-5H-[2]pyrindin-7-yl]-methanesulfonamide]	35100 nM	4350 nM
CC(=O)NC1CCc2c1cncc2N1CCc2cc(Cl)ccc2C1=O (single isomer, unassigned) [Example 333, N-[(S or R)-4-(6-Chloro-1-oxo-3,4-dihydro-1H-isoquinolin-2-yl)-6,7-dihydro-5H-[2]pyrindin-7-yl]-acetamide]	5240 nM	95.8 nM

Further lines, results first:

EC50 [1]	EC50 [2]	Compound
34600 nM	383 nM	CS(=O)(=O)NC1CCc2c1cncc2N1Cc2cc(Cl)ccc2C1=O (single isomer, unassigned) [Example 334, N-[(R or S)-4-(5-Chloro-1-oxo-1,3-dihydro-isoindol-2-yl)-6,7-dihydro-5H-[2]pyrindin-7-yl]-methanesulfonamide]
30000 nM	949 nM	CCS(=O)(=O)NC1CCc2c1cncc2N1Cc2cc(Cl)ccc2C1=O (single isomer, unassigned) [Example 336, Ethanesulfonic acid [(R or S)-4-(5-chloro-1-oxo-1,3-dihydro-isoindol-2-yl)-6,7-dihydro-5H-[2]pyrindin-7-yl]-amide]
7990 nM	54.5 nM	CCC(=O)NC1CCc2c1cncc2N1Cc2cc(Cl)ccc2C1=O (single isomer, unassigned) [Example 339, N-[(R or S)-4-(5-Chloro-1-oxo-1,3-dihydro-isoindol-2-yl)-6,7-dihydro-5H-[2]pyrindin-7-yl]-propionamide]
94.7 nM	15.1 nM	CC[C@@H]1c2cc(Cl)ccc2C(=O)N1c1cncc2c1CC[C@@H]2NC(C)=O (single isomer, unassigned) [Example 342, (+)-N—[(S or R)-4-((R or S)-5-Chloro-3-ethyl-1-oxo-1,3-dihydro-isoindol-2-yl)-6,7-dihydro-5H-[2]pyrindin-7-yl]-acetamide]
4690 nM	134 nM	CC[C@H]1c2cc(Cl)ccc2C(=O)N1c1cncc2c1CC[C@H]2NC(C)=O (single isomer, unassigned) [Example 343]
1500 nM	31.2 nM	CC[C@@H]1c2cc(Cl)ccc2C(=O)N1c1cncc2c1CC[C@H]2NC(C)=O (single isomer, unassigned) [Example 344, (+)-N—[(R or S)-4-((R or S)-5-Chloro-3-ethyl-1-oxo-1,3-dihydro-isoindol-2-yl)-6,7-dihydro-5H-[2]pyrindin-7-yl]-acetamide]
2000 nM	49.4 nM	CC[C@H]1c2cc(Cl)ccc2C(=O)N1c1cncc2c1CC[C@@H]2NC(C)=O (single isomer, unassigned) [Example 345, (−)-N—[(S or R)-4-((S or R)-5-Chloro-3-ethyl-1-oxo-1,3-dihydro-isoindol-2-yl)-6,7-dihydro-5H-[2]pyrindin-7-yl]-acetamide]
22900 nM	162 nM	CC[C@@H]1c2cc(Cl)ccc2C(=O)N1c1cncc2c1CCC[C@H]2NS(C)(=O)=O (single isomer, unassigned) [Example 347, N-[(R or S)-4-((R or S)-5-Chloro-3-ethyl-1-oxo-1,3-dihydro-isoindol-2-yl)-5,6,7,8-tetrahydro-isoquinolin-8-yl]-methanesulfonamide]
36900 nM	2830 nM	CC[C@H]1c2cc(Cl)ccc2C(=O)N1c1cncc2c1CCC[C@@H]2NS(C)(=O)=O (single isomer, unassigned) [Example 348, N-[(S or R)-4-((S or R)-5-Chloro-3-ethyl-1-oxo-1,3-dihydro-isoindol-2-yl)-5,6,7,8-tetrahydro-isoquinolin-8-yl]-methanesulfonamide]
15100 nM	982 nM	CC[C@@H]1c2cc(Cl)ccc2C(=O)N1c1cncc2c1CCC[C@@H]2NS(C)(=O)=O (single isomer, unassigned) [Example 349, N-[(S or R)-4-((R or S)-5-Chloro-3-ethyl-1-oxo-1,3-dihydro-isoindol-2-yl)-5,6,7,8-tetrahydro-isoquinolin-8-yl]-methanesulfonamide]
3680 nM	59.4 nM	CC[C@H]1c2cc(Cl)ccc2C(=O)N1c1cncc2c1CCC[C@H]2NS(C)(=O)=O (single isomer, unassigned) [Example 350, N-[(R or S)-4-((S or R)-5-Chloro-3-ethyl-1-oxo-1,3-dihydro-isoindol-2-yl)-5,6,7,8-tetrahydro-isoquinolin-8-yl]-methanesulfonamide]
